This passage reports IC50 results from PubChem BioAssay AID493251 (Sanford-Burnham Center for Chemical Genomics, 2011).

Each structure is given as a SMILES string. Values joined by “and” are separate entries in the source; they are usually repeats but may differ in a detail not shown here. Equal values may be shown once.

The assay has as its system HEK293T NF-kB-Luc cytotoxicity, resazurin fluorescence, 14 h. Description: HEK293T cell viability loss, resazurin readout – resazurin fluorescence, cytotoxicity control for NF-kB activator project, SAR follow-up (AID 493251). On the technique in general: Alamar Blue is a resazurin reagent that responds to reducing activity.

The IC50 is the midpoint of a concentration-inhibition curve. A high value points to a need for much substance.

In the case of `CCCC(=O)NC(c1ccc(OC)cc1)c1ccc2cccnc2c1O` (stereo unspecified), the IC50 is 15.8 µM and > 33.2 µM (inactive).
